This note sets out measurements from ChEMBL document CHEMBL1143692, “Modulating paclitaxel bioavailability for targeting prostate cancer” (Bioorg Med Chem, 2007).

One data set concerns CWR22R. The data set is described as follows: Toxicity against human CWR22Rv1 cells upto 100 uM. Type of data set: functional, cell-based.
The subject of data set [1] is DU-145. Kind of data set: Toxicity against human DU145 cells upto 100 uM. The class given is functional, cell-based.
In data set [2] the test system is TSU. Kind of data set: Toxicity against human TSU cells upto 100 uM. The class given is functional, cell-based.
Data set [3] deals with TSU. Kind of data set: Growth inhibition of human TSU cells at 1 nM. Type of data set: functional.
Data set [4] concerns prostate-specific antigen. The data set is described as follows: Half life in Tris buffer at pH 7.8, 37 degC for 48 hrs in presence of prostate-specific antigen at 100 uM. The class given is ADME, Prostate gland. The note with it: Tris buffer with prostate-specific antigen.
The nature of data set [5]: Half life in serum at 100 uM after 48 hrs at 37 degC. The note with it: human. The class given is ADME, cell-free.
The subject of a further data set is Plasma. Kind of data set: Degradation in plasma at 100 uM after 48 hrs. Type of data set: functional, Homo sapiens.
The subject of another data set is Serum. The data set is described as follows: Degradation in serum at 100 uM after 48 hrs. Type of data set: functional, Homo sapiens.
The species named for data set [6] is Homo sapiens. Kind of data set: Activity at prostate-specific antigen hydrolysis at pH 7.8. Type of data set: tissue-based. The note with it: Prostate gland.
The species entered for data set [7] is Homo sapiens. Kind of data set: Ratio of […] for prostate-specific antigen. The note with it: Prostate gland.
Data set [8] in a line: Growth inhibition of human CWR22Rv1 cells. To be noted: 22Rv1. Type of data set: functional, cell-based, CWR22R.
For data set [9], the system named is DU-145. Kind of data set: Growth inhibition of human DU145 cells. The class given is functional, cell-based.
For data set [10], the system named is TSU. Kind of data set: Growth inhibition of human TSU cells. Type of data set: functional, cell-based.
Data set [11] can be described thus: Cytotoxicity against human CWR22Rv1 cells after 96 hrs. The class given is functional, cell-based, CWR22R. The note with it: 22Rv1, 96 h.

Starred links: 1 amine or outer side, 2 acyl side, 3 side chain; linkers in the order of their positions; H or OH if unused. Residues, ends and D or L forms follow the SMILES beside them. *: point of attachment. Morpholide = C1CN(*)CCO1; CO = O=C([*:1])[*:2] Some results are limits rather than exact numbers.

As to `NCCCC[C@H](NC(=O)[C@H](CO)NC(=O)[C@H](CO)NC(=O)N1CCOCC1)C(=O)N[C@@H](Cc1ccc(O)cc1)C(=O)N[C@@H](CCC(N)=O)C(=O)O` ({Morpholide-CO}-SSKYQ-OH), the Activity entry with CWR22R, in the data set on DU-145 [1] and with TSU [2] was “Not toxic” throughout.
As to `CC(=O)O[C@H]1C(=O)[C@@]2(C)[C@H]([C@H](OC(=O)c3ccccc3)[C@]3(O)C[C@H](OC(=O)[C@H](O)[C@@H](NC(=O)c4ccccc4)c4ccccc4)C(C)=C1C3(C)C)[C@]1(OC(C)=O)CO[C@@H]1C[C@@H]2O` [PACLITAXEL], the inhibition at 0.001 µM in the data set with TSU [3] was 90%.
Regarding `CC(=O)O[C@H]1C(=O)[C@]2(C)[C@@H](OC(=O)OCc3ccc(NC(=O)[C@H](CCC(N)=O)NC(=O)[C@H](CC(C)C)NC(=O)[C@H](CCCCN)NC(=O)[C@H](CO)NC(=O)[C@H](CO)NC(=O)[C@H](Cc4c[nH]cn4)NC(=O)N4CCOCC4)cc3)C[C@@H]3OC[C@]3(OC(C)=O)[C@@H]2[C@H](OC(=O)c2ccccc2)[C@]2(O)C[C@@H](OC(=O)[C@H](O)[C@@H](NC(=O)c3ccccc3)c3ccccc3)C(C)=C1C2(C)C`, the half-life at 100 µM in [4] is 14 h. In data set [5], this compound had a half-life at 100 µM of 1.5 h. In the data set on Plasma, this compound gave a Percent degraded of 7%. In the data set on Serum, this compound returned an Activity of 92%. Testing at 0.001 µM in the data set with TSU [3] gave an inhibition of 30%. For the same compound, in the data set listed under Homo sapiens [6], the Michaelis-Menten constant (Km) stood at 216 µM and the catalytic constant (kcat) came to 0.00585 s⁻¹. Also, the kcat/Km in the data set filed under Homo sapiens [7] amounted to 27 M⁻¹ s⁻¹.
On to `CC(=O)O[C@H]1C(=O)[C@]2(C)[C@@H](O)C[C@@H]3OC[C@]3(OC(C)=O)[C@@H]2[C@H](OC(=O)c2ccccc2)[C@]2(O)C[C@@H](OC(=O)[C@H](OC(=O)N(C)CCNC(=O)[C@H](CCC(N)=O)NC(=O)[C@H](CC(C)C)NC(=O)[C@H](CCCCN)NC(=O)[C@H](CO)NC(=O)[C@H](CO)NC(=O)[C@H](Cc3c[nH]cn3)NC(=O)N3CCOCC3)[C@@H](NC(=O)c3ccccc3)c3ccccc3)C(C)=C1C2(C)C`, for which the half-life at 100 µM in [4] is 10 h. In the data set on Plasma, the Percent degraded was below 3%. In the data set with Serum, this compound came in with an Activity below 2%.
With `CC(=O)O[C@H]1C(=O)[C@]2(C)[C@@H](O)C[C@@H]3OC[C@]3(OC(C)=O)[C@@H]2[C@H](OC(=O)c2ccccc2)[C@]2(O)C[C@@H](OC(=O)[C@H](OC(=O)OCc3ccc(NC(=O)[C@H](CCC(N)=O)NC(=O)[C@H](CC(C)C)NC(=O)[C@H](CCCCN)NC(=O)[C@H](CO)NC(=O)[C@H](CO)NC(=O)[C@H](Cc4c[nH]cn4)NC(=O)N4CCOCC4)cc3)[C@@H](NC(=O)c3ccccc3)c3ccccc3)C(C)=C1C2(C)C`, the half-life at 100 µM is 12 h in [4] and 1 h in [5]. In the data set on Plasma, this compound returned a Percent degraded of 10%. The compound further gave an Activity in the data set on Serum of 87%. The same compound came in with an inhibition at 0.001 µM in the data set on TSU [3] of 30%.
Consider `CC(=O)O[C@H]1C(=O)[C@]2(C)[C@@H](O)C[C@@H]3OC[C@]3(OC(C)=O)[C@@H]2[C@H](OC(=O)c2ccccc2)[C@]2(O)C[C@@H](OC(=O)[C@H](OC(=O)N(C)CCNC(=O)[C@H](CCC(N)=O)NC(=O)[C@H](Cc3ccc(O)cc3)NC(=O)[C@H](CCCCN)NC(=O)[C@H](CO)NC(=O)[C@H](CO)NC(=O)N3CCOCC3)[C@@H](NC(=O)c3ccccc3)c3ccccc3)C(C)=C1C2(C)C`, for which, in [4], the half-life at 100 µM was 6 h. Besides, the Percent degraded with Plasma is given as below 3%. In addition, the Activity in the data set on Serum is reported as below 2%. Also, the IC50 is below 1 nM in data set [8], below 1 nM in the data set with DU-145 [9], below 1 nM in the data set on TSU [10] and 1000 nM in data set [11].
